Data: US12528777B2, “Quinazolinones derivatives for treatment of non-alcoholic fatty liver disease, preparation and use thereof” (Council of Scientific and Industrial Research, priority 2020, dated 2026)
“Also recorded” adds a separate entry of the source.

Key:
[1] = Plasma stability assay; format: in vitro ADME, human; conditions: for Mean % remaining at 2 hrs in human Plasma: 1 μM, 37° C., 120 min, LC-MS/MS; for Plasma stability: human plasma, after 2 hours, with respect to Propantheline
Description: 1 mM Stock of test compound was prepared from 10 mM initial stock solution of compounds by diluting 10 μL of 10 mM stock with 90 μL of DMSO. Then 10 μL of 1 mM stock was diluted with 90 µL of DMSO to give 100 μM concentration. The frozen plasma was thawed at room temperature and centrifuged at 1400 rpm at 4° C., for 15 minutes. Approximately […] of the clear supernatant fraction was transferred to a separate tube and was used for the assay. Final working stock of 1 μM was prepared by diluting 3 μL of 100 μM with 297 μL of plasma. Plasma containing the test compound was incubated for 120 min at 37° C. in shaker with 500 rpm. 50 μL of aliquot of sample at 0, 15, 30, 60 and 120 minutes were precipitated with 150 μL of acetonitrile containing internal standard and centrifuged at 4000 rpm at 4° C. for 20 minutes. 120 μL of supernatant was diluted with 120 μL of water and analyzed by LC-MS/MS.

[2] = system: ATGL; test: Western blot of ATGL level in HepG2 cells; format: cell-based; parameters: key to Increase in ATGL level: + = slight or in insignificant; ++ = Moderate; +++ and ++++ = active; +++ and ++++ = active; +++++ = very active; conditions: for EC50: fold increase of ATGL by densitometry, as % of 1.6 fold maximum with siCOP1, doses 10-5000 nM, read-out: EC50 (in-vitro); for ATGL level in HepG2 cells / Increase in ATGL level: western blot; for ATGL level in HepG2 cells: 24 hours, 10 μM screening or 50 nM-5 μM dose dependent; for Increase in ATGL level: HepG2 cells, score
How it was run: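 HepG2 cells were treated with compound 24 h (10 μM screen; 50 nM–5 μM dose series) and lysed. 30 μg protein was western blotted for ATGL, with actin as loading reference. ATGL increase was expressed as percent of the 1.6-fold siCOP1 maximum and plotted against log concentration for EC50.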

[3] = target: COP1 (Homo sapiens, UniProt Q8NHY2); test: Immunoprecipitation assay of COP1 autoubiquitination in HepG2 cells; format: cell-based; conditions: 5 μM, 24 hours, MG-132
COP1 (Homo sapiens, UniProt Q8NHY2), sequence (Q8NHY2 whole entry): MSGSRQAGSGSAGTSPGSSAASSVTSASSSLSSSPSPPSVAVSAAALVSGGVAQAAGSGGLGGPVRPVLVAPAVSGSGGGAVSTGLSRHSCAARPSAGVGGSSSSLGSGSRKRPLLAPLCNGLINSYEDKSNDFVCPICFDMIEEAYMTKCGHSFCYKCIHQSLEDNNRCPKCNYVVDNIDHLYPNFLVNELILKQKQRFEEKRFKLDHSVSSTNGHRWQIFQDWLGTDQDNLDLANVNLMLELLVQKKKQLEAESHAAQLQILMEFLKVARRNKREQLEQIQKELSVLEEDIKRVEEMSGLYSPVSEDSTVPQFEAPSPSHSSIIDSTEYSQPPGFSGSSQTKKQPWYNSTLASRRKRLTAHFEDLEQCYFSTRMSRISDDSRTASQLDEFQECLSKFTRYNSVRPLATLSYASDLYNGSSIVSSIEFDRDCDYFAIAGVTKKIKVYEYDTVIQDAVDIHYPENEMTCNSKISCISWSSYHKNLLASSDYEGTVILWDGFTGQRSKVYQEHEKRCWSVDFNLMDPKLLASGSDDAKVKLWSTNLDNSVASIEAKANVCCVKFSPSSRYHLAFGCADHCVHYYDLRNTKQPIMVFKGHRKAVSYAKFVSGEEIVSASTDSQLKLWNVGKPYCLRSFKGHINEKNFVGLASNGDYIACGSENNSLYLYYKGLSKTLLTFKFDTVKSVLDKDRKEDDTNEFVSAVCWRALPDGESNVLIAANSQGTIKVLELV
Description: COP1 is capable of auto ubiquitinating its own self and getting degraded via the proteasomal pathway. To probe into this, HepG2 cells were co-transfected with HA tagged Ubiquitin and myc-flag tagged COP1. The transfected cells were treated with 5 μM of compounds 9, 10, 107 and 238 for 24 hours. MG-132, a proteasomal inhibitor, was added 4 hours before harvesting the cells. Immune complexes were pulled down with anti-myc antibody and immunoblot was done using anti-HA antibody. […] Thus, the compounds of the present disclosure could be potent therapeutic targets by being able to block the proteasomal degradation of ATGL which would then be able to carry out its lipolytic action and reverse the symptoms of steatosis.
For checking the autoubiquitination status of COP1, HepG2 cells were cotransfected with 2 μg each of Myc-DDK-COP1 and HA-Ub plasmids using Lipofectamine 2000 reagent (Invitrogen) in OptiMEM media (HiMedia). The rest of the procedure is similar to that done for Myc-ATGL.

[4] = system: COP1; test: qPCR of COP1 mRNA in HepG2 cells; format: cell-based; conditions: 5 μM and 10 μM, 24 hours
Description: Ubiquitination of ATGL by COP1 is a post translational event, therefore, it is expected that the mRNA level of ATGL will not change compared to control upon treatment with the compound of the present disclosure which inhibit COP1. To establish this, HepG2 cells were treated with 5 μM and 10 μM of the compounds 9, 107, 171, 179 and 73 for 24 hours. RNA was isolated using TRIzol reagent followed by chloroform treatment and precipitation with isopropanol. cDNA was obtained from the isolated RNA and qPCR was carried out using SyBr green reagent. COP1 and ATGL gene expression levels were checked. 18s was used as control. FIG. 8 illustrates that compounds exert no effect on the mRNA levels of ATGL.

SMILES | Mean % remaining at 2 hrs in human Plasma [1] [%] | Plasma stability [1] | EC50 [2] [nM] | ATGL level in HepG2 cells [2] | COP1 autoubiquitination in HepG2 cells [3] | COP1 mRNA level [4] | Increase in ATGL level [2]
COCCn1c(-c2ccncc2)nc2ccc(NC(=O)Nc3cccc(C(C)=O)c3)cc2c1=O [Compound 219, 1-(3-acetylphenyl)-3-(3-(2-methoxyethyl)-4-oxo-2-(pyridin-4-yl)-3,4-dihydroquinazolin-6-yl)urea] | 73.9 | good plasma stability | 29.5 | increased ATGL level | – | – | –
COCCn1cnc2ccc(NC(=O)Nc3cccc(C(C)=O)c3)cc2c1=O [Compound 9, 1-(3-acetylphenyl)-3-(3-(2-methoxyethyl)-4-oxo-3,4-dihydroquinazolin-6-yl)urea] | 16.9 | lower plasma stability | – | increased ATGL level | effective in reducing; also recorded: markedly reduce COP1's auto ubiquitination property | no significant changes | +++++
COCCn1c(-c2cccnc2)nc2ccc(NC(=O)Nc3cccc(C(C)=O)c3)cc2c1=O [Compound 215, 1-(3-acetylphenyl)-3-(3-(2-methoxyethyl)-4-oxo-2-(pyridin-3-yl)-3,4-dihydroquinazolin-6-yl)urea] | 80.70 | good plasma stability | 30.2 | increased ATGL level | – | – | –
COCC(C)n1cnc2ccc(NC(=O)Nc3cccc(C(C)=O)c3)cc2c1=O (centres unmarked) [Compound 179, 1-(3-acetylphenyl)-3-(3-(1-methoxypropan-2-yl)-4-oxo-3,4-dihydroquinazolin-6-yl)urea] | 20.6 | lower plasma stability | – | – | – | no significant changes | +++++
CC(=O)c1cccc(NC(=O)Nc2ccc3ncn(CCCN4CCOCC4)c(=O)c3c2)c1 [Compound 139, 1-(3-acetylphenyl)-3-(3-(3-morpholinopropyl)-4-oxo-3,4-dihydroquinazolin-6-yl)urea] | 55.50 | good plasma stability | 1.19 | increased ATGL level; also recorded: some sort of increase in ATGL level | – | – | +++
COCCn1c(CN2CCCCC2)nc2ccc(NC(=O)Nc3cccc(C(C)=O)c3)cc2c1=O [Compound 238, 1-(3-acetylphenyl)-3-(3-(2-methoxyethyl)-4-oxo-2-(piperidin-1-ylmethyl)-3,4-dihydroquinazolin-6-yl)urea] | 98.1 | good plasma stability | 1.02 | increased ATGL level; also recorded: most potent in increasing ATGL and COP1 levels; also recorded: increase in ATGL and COP1 levels | markedly reduce COP1's auto ubiquitination property | – | +++++
COCCn1c(C)nc2ccc(NC(=O)Nc3cccc(C(C)=O)c3)cc2c1=O [Compound 107, 1-(3-acetylphenyl)-3-(3-(2-methoxyethyl)-2-methyl-4-oxo-3,4-dihydroquinazolin-6-yl)urea] | – | – | – | – | effective in reducing; also recorded: markedly reduce COP1's auto ubiquitination property | no significant changes | ++++
